The text below walks through data of ChEMBL document CHEMBL1201862, “PubChem BioAssay data set” (2004).

Some test systems named below: U-251; T47D; OVCAR-4; HCT-15; OVCAR-3; TK-10; 786-0; NCI/ADR-RES; SR; HOP-62; HOP-92; SK-MEL-5; HCT-116; SF-268; SK-OV-3; NCI-H460; CCRF-CEM; SW-620; NCI-H226.
Assay in all cases: NCI tumour cell line growth inhibition, 48 h

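Five concentrations, 48 hours, 96-well plates. The concentration for 50% growth inhibition is given as GI50.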 The source made the active and inactive calls. No stated cut-off is given here; in the data, active = GI50 up to about 1.1 µM and inactive = higher.

On to `C=C1c2nc3ccccc3n2C=C(c2ccc(C)cc2)N1c1ccc(OC)cc1`, for which the GI50 with U-251 was 97.7 µM (inactive); in the experiment on T47D, 26.2 µM (inactive); in the experiment with OVCAR-4 it was > 94.2 µM (inactive); in the experiment with HCT-15 it was 9.51 µM; with OVCAR-3, 46.8 µM (inactive); in the experiment on TK-10, > 83.4 µM (inactive). Also, the GI50 with 786-0 was > 100 µM (inactive); in the experiment with NCI/ADR-RES it was 14.9 µM (inactive); with SR it was 3.22 µM (inactive); in the experiment with HOP-62, > 100 µM (inactive); in the experiment on HOP-92, > 48.2 µM (inactive); with SK-MEL-5 it was 13.7 µM (inactive). In addition, the GI50 in the experiment on HCT-116 was 19.5 µM (inactive); with SF-268, > 100 µM (inactive); in the experiment on SK-OV-3, > 100 µM (inactive); in the experiment on NCI-H460, 59.8 µM (inactive); with CCRF-CEM it was 34.4 µM (inactive); in the experiment with SW-620, 13.6 µM (inactive). Further, the GI50 in the experiment with NCI-H226 was 27.9 µM (inactive).

As to `CC(/C=N/N(C)C1=NCCCCN1)=N/N(C)C1=NCCCCN1`, the GI50 in the experiment with U-251 was > 100 µM (inactive); in the experiment with T47D, > 100 µM (inactive); with OVCAR-4, > 100 µM (inactive); in the experiment on HCT-15, over 100 µM; in the experiment on OVCAR-3, > 100 µM (inactive); in the experiment on TK-10 it was > 100 µM (inactive). For the same compound, the GI50 in the experiment on 786-0, with NCI/ADR-RES, in the experiment on SR, with HOP-62, with HOP-92 and in the experiment with SK-MEL-5 was > 100 µM (inactive) throughout. Moreover, the GI50 with HCT-116, in the experiment with SF-268, in the experiment on SK-OV-3, in the experiment with NCI-H460, in the experiment with CCRF-CEM and with SW-620 was > 100 µM (inactive) throughout. In addition, the GI50 in the experiment on NCI-H226 is > 100 µM (inactive).

Consider `OC(c1ccccc1)c1c(-c2ccccc2)oc(-c2ccccc2)c1C(O)c1ccccc1` (centres undefined), for which the GI50 was 14 µM (inactive) in the experiment on U-251; 6.28 µM (inactive) in the experiment with T47D; < 0.01 µM (active) in the experiment on OVCAR-4; 12.1 µM in the experiment with HCT-15; 5.73 µM (inactive) in the experiment on OVCAR-3; 15.6 µM (inactive) in the experiment with TK-10. The GI50 with 786-0 is 9.06 µM (inactive); with NCI/ADR-RES, 9.02 µM (inactive); with SR, 9.95 µM (inactive); in the experiment with HOP-62, 14.4 µM (inactive); in the experiment with HOP-92 it was 13.4 µM (inactive); in the experiment with SK-MEL-5 it was 11.4 µM (inactive). Moreover, the GI50 was 5.65 µM (inactive) with HCT-116; 12 µM (inactive) with SF-268; 14.7 µM (inactive) in the experiment on SK-OV-3; 8.15 µM (inactive) in the experiment with NCI-H460; 3.73 µM (inactive) with CCRF-CEM; 14.7 µM (inactive) in the experiment on SW-620. For the same compound, the GI50 in the experiment on NCI-H226 is 7.4 µM (inactive).

As to `CNc1nc(=O)c(C#N)c(-c2ccc(C)cc2)s1`, the GI50 with U-251 is > 100 µM (inactive); in the experiment with T47D it was > 100 µM (inactive); with OVCAR-4 it was > 100 µM (inactive); in the experiment with HCT-15, over 100 µM; with OVCAR-3 it was > 100 µM (inactive); in the experiment on TK-10, > 100 µM (inactive). Also, the GI50 in the experiment on 786-0, with NCI/ADR-RES, with SR, with HOP-92, in the experiment with SK-MEL-5 and with HCT-116 was > 100 µM (inactive) in each case. In addition, the GI50 in the experiment on SK-OV-3, with NCI-H460, with CCRF-CEM, in the experiment with SW-620 and in the experiment on NCI-H226 was > 100 µM (inactive) in each case.

As to `COC(=O)C1CCCCCCCCCCC12SCCCS2` (centres undefined), the GI50 in the experiment with U-251 was 17.3 µM (inactive); with T47D, 35.7 µM (inactive); with OVCAR-4, 16.5 µM (inactive); in the experiment with HCT-15, 26.7 µM; in the experiment on OVCAR-3, 18.4 µM (inactive); in the experiment on TK-10 it was 20.1 µM (inactive). Also, the GI50 in the experiment on 786-0 is 14.6 µM (inactive); in the experiment on NCI/ADR-RES, 20.7 µM (inactive); in the experiment with SR it was 11.5 µM (inactive); with HOP-62 it was 21.2 µM (inactive); with HOP-92 it was 19.4 µM (inactive); with SK-MEL-5 it was 18.7 µM (inactive). For the same compound, the GI50 in the experiment with HCT-116 is 16.3 µM (inactive); with SF-268 it was 23 µM (inactive); in the experiment on SK-OV-3, 49.5 µM (inactive); with NCI-H460, 37.2 µM (inactive); in the experiment on CCRF-CEM it was 23 µM (inactive); in the experiment with SW-620, 27.2 µM (inactive). Further, the GI50 in the experiment on NCI-H226 was 18.6 µM (inactive).

Take `CC(C)(C)OC(=O)N(CCCCNC(=O)c1ccccc1)CCCNC(=O)c1ccccc1`: the GI50 in the experiment on U-251 was > 100 µM (inactive); in the experiment with T47D it was 74.3 µM (inactive); in the experiment on OVCAR-4, > 100 µM (inactive); in the experiment on HCT-15, over 100 µM; with OVCAR-3 it was > 100 µM (inactive); with TK-10 it was > 100 µM (inactive). In addition, the GI50 in the experiment with 786-0 was > 100 µM (inactive); in the experiment with NCI/ADR-RES it was 68.1 µM (inactive); in the experiment with SR, 49.3 µM (inactive); in the experiment with HOP-62 it was > 100 µM (inactive); in the experiment with HOP-92, > 100 µM (inactive); with SK-MEL-5 it was > 100 µM (inactive). Moreover, the GI50 with HCT-116 is > 100 µM (inactive); in the experiment with SF-268, > 100 µM (inactive); in the experiment on SK-OV-3, > 100 µM (inactive); in the experiment on NCI-H460, > 100 µM (inactive); in the experiment on CCRF-CEM it was 72.1 µM (inactive); with SW-620, > 100 µM (inactive). Further, the GI50 in the experiment with NCI-H226 is > 100 µM (inactive).

Consider `N#CCCC(C=O)(CCC#N)CCC#N`, for which the GI50 with U-251 was > 100 µM (inactive); in the experiment with T47D, > 100 µM (inactive); in the experiment with OVCAR-4 it was > 100 µM (inactive); in the experiment with HCT-15, over 100 µM; in the experiment on OVCAR-3 it was > 100 µM (inactive); in the experiment on TK-10, > 100 µM (inactive). The GI50 with 786-0, in the experiment on NCI/ADR-RES, with SR, with HOP-92, in the experiment on SK-MEL-5 and in the experiment on HCT-116 was > 100 µM (inactive) throughout. In addition, the GI50 in the experiment with SF-268, in the experiment on SK-OV-3, with NCI-H460, in the experiment on CCRF-CEM, in the experiment on SW-620 and in the experiment with NCI-H226 was > 100 µM (inactive) in each case.

Regarding `O=C(/C=C/c1ccc(Cl)c(Cl)c1)CCN1CCN(CCC(=O)/C=C/c2ccc(Cl)c(Cl)c2)CC1`, the GI50 is 13.9 µM (inactive) in the experiment with U-251; 24.8 µM (inactive) in the experiment with T47D; 15.7 µM (inactive) in the experiment with OVCAR-4; 13.8 µM in the experiment on HCT-15; 23.6 µM (inactive) in the experiment on OVCAR-3; 18 µM (inactive) with TK-10. Also, the GI50 in the experiment with 786-0 is 6.9 µM (inactive); in the experiment with NCI/ADR-RES, 36.9 µM (inactive); in the experiment on SR it was 12.3 µM (inactive); in the experiment with HOP-62, 21.9 µM (inactive); with HOP-92, 22.8 µM (inactive); in the experiment with SK-MEL-5 it was 19.3 µM (inactive). Also, the GI50 in the experiment on HCT-116 is 7.55 µM (inactive); with SF-268, 35.4 µM (inactive); with SK-OV-3, 45.6 µM (inactive); with NCI-H460, 17.2 µM (inactive); with CCRF-CEM, 6.59 µM (inactive); in the experiment with SW-620, 18.2 µM (inactive). The GI50 with NCI-H226 is 19.7 µM (inactive).

Turning to `C/C(=N/NC(=S)Nc1cccc(Cl)c1)c1cccc(/C(C)=N\NC(=S)Nc2cccc(Cl)c2)n1`, the GI50 in the experiment on U-251 is 3.13 µM (inactive); in the experiment on T47D it was 3.48 µM (inactive); with OVCAR-4 it was 5.14 µM (inactive); with HCT-15, 2.49 µM; in the experiment on OVCAR-3 it was 0.379 µM (active); in the experiment with TK-10 it was 2.02 µM (inactive). For the same compound, the GI50 was 0.893 µM (active) in the experiment on 786-0; 1.09 µM (active) with NCI/ADR-RES; 0.828 µM (active) in the experiment with SR; 1.15 µM (inactive) in the experiment on HOP-62; 3.65 µM (inactive) in the experiment with HOP-92; 2.03 µM (inactive) in the experiment on SK-MEL-5. Also, the GI50 in the experiment with HCT-116 is 2.4 µM (inactive); in the experiment with SK-OV-3, 4.22 µM (inactive); in the experiment on NCI-H460, 2.01 µM (inactive); in the experiment with CCRF-CEM it was 1.28 µM (inactive); with SW-620 it was 3.25 µM (inactive); in the experiment on NCI-H226, 0.998 µM (active).

Consider `CC(=O)OC12c3ccccc3-c3ccccc3C1C1C(=O)N(C)C(=O)C12Cl` (centres undefined), for which the GI50 in the experiment with U-251 was > 10 µM (inactive); with T47D it was > 10 µM (inactive); in the experiment with OVCAR-4 it was > 10 µM (inactive); in the experiment on HCT-15, over 10 µM; in the experiment on OVCAR-3, > 10 µM (inactive); with TK-10, > 10 µM (inactive). Moreover, the GI50 in the experiment with 786-0, with NCI/ADR-RES, in the experiment on SR, in the experiment on HOP-62, in the experiment on HOP-92 and in the experiment with SK-MEL-5 was > 10 µM (inactive) in each case. For the same compound, the GI50 in the experiment on SF-268, in the experiment with SK-OV-3, with NCI-H460, in the experiment on CCRF-CEM, in the experiment with SW-620 and in the experiment with NCI-H226 was > 10 µM (inactive) throughout.

For the compound `CCCCCCCCC/C=C1\CC(CO)(COC(=O)C2CCCCC2)OC1=O` (centres undefined), the GI50 is 19.7 µM (inactive) in the experiment on U-251; 20.9 µM (inactive) with T47D; 22.8 µM (inactive) in the experiment with OVCAR-4; 23.2 µM with HCT-15; 18.6 µM (inactive) in the experiment with OVCAR-3; 21.3 µM (inactive) with TK-10. Further, the GI50 with 786-0 was 14.9 µM (inactive); with NCI/ADR-RES, 17 µM (inactive); in the experiment with SR, 32.4 µM (inactive); with HOP-62 it was 13.4 µM (inactive); in the experiment on HOP-92, 8.17 µM (inactive); with SK-MEL-5, 11.8 µM (inactive). Further, the GI50 is 23 µM (inactive) with HCT-116; 20.4 µM (inactive) in the experiment with SF-268; 25.8 µM (inactive) in the experiment with SK-OV-3; 14.5 µM (inactive) with NCI-H460; 12.9 µM (inactive) with CCRF-CEM; 18.4 µM (inactive) with SW-620. Further, the GI50 with NCI-H226 was 23.3 µM (inactive).
